Experimental data taken from ChEMBL document CHEMBL1133783, “Diastereoselective synthesis, activity and chiral stability of cyclic alkoxyketone inhibitors of cathepsin K” (Bioorg Med Chem Lett, 2001).

target: T1, Cathepsin K (Homo sapiens, UniProt P43235); experiment: Inhibitory activity was evaluated against cathepsin K
T1 sequence (P43235 whole entry): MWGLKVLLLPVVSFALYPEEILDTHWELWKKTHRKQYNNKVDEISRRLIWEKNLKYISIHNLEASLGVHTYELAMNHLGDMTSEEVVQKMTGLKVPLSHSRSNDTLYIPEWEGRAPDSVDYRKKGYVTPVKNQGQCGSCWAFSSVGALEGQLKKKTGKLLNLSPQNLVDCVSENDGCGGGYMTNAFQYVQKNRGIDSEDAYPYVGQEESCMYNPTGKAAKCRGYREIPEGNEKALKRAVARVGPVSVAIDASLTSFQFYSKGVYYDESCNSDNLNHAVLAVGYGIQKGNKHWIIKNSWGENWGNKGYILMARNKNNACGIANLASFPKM

| SMILES | Ki [nM] |
| --- | --- |
| COc1ccc(CC(=O)N[C@@H](CC(C)C)C(=O)NC2CCOCC2=O)cc1OC (some centres not stated) | 770 |

target: T1, Cathepsin K; experiment: Inhibition of cathepsin K

| SMILES | Ki [nM] |
| --- | --- |
| CC(C)C[C@H](NC(=O)c1ccc2ccccc2n1)C(=O)N[C@H]1COCC1=O | 15 |
| CC(C)C[C@H](NC(=O)c1ccc2ccccc2c1)C(=O)N[C@H]1COCC1=O | 14 |
| CC(C)C[C@@H](NC(=O)c1ccc2ccccc2c1)C(=O)N[C@@H]1COCC1=O | 470 |
| CC(C)C[C@H](NC(=O)c1cc2ccccc2s1)C(=O)N[C@H]1COCC1=O | 7 |
| CC(C)C[C@@H](NC(=O)c1ccc2ccccc2n1)C(=O)N[C@@H]1COCC1=O | 590 |
| CC(C)C[C@@H](NC(=O)c1cc2ccccc2s1)C(=O)N[C@@H]1COCC1=O | 68 |
| COc1ccc(CC(=O)N[C@@H](CC(C)C)C(=O)NC2CCOCC2=O)cc1OC (some centres not stated) | 10 |
| CC(C)C[C@H](NC(=O)c1ccc2ccccc2c1)C(=O)NC1CCOCC1=O (single isomer, unassigned; diastereomer 1) | 32 |
| CC(C)C[C@H](NC(=O)c1cc2ccccc2s1)C(=O)NC1CCOCC1=O (single isomer, unassigned; diastereomer 1) | 8 |
| CC(C)C[C@H](NC(=O)c1ccc2ccccc2c1)C(=O)NC1CCOCC1=O (single isomer, unassigned; diastereomer 2) | 380 |
| CC(C)C[C@H](NC(=O)c1cc2ccccc2s1)C(=O)NC1CCOCC1=O (single isomer, unassigned; diastereomer 2) | 70 |
